What all share (format): in vivo
What all share (conditions): 312 h, rate 250 g/ha, evaluated after 13 days, 100=total damage to plant, 0=no damage to plant

Assay [1] has as its system Avena fatua (AVEFA). Put plainly: Post-emergence herbicidal activity, glasshouse pot test. As for the experimental part: (§1) Seeds of a variety of test species were sown in standard soil in pots. After cultivation for one day (pre-emergence) or after 8 days cultivation (post-emergence) under controlled conditions in a glasshouse (at 24/16° C., day/night; 14 hours light; 65% humidity), the plants were sprayed with an aqueous spray solution derived from the formulation of the technical active ingredient in acetone/water (50:50) solution containing 0.5% Tween 20 (polyoxyethelyene sorbitan monolaurate, CAS RN 9005-64-5). The test plants were then grown in a glasshouse under controlled conditions in a glasshouse (at 24/16° C., day/night; 14 hours light; 65% humidity) and watered twice daily. After 13 days for pre and post-emergence, the test was evaluated (100=total damage to plant; 0=no damage to plant). Test Plants: Lolium perenne (LOLPE), Alopecurus myosuroides (ALOMY), Echinochloa crus-galli (ECHCG), and Avena fatua (AVEFA). Post-Emergence Activity

The test system of assay [2] is Echinochloa crus-galli (ECHCG). The assay is described as above. As for the experimental part: as §1
The subject of assay [3] is Alopecurus myosuroides (ALOMY). Described as above. As for the experimental part:
as §1

The subject of assay [4] is Lolium perenne (LOLPE). Described as above. As for the experimental part: as §1
Assay [5] has as its system Avena fatua (AVEFA). Put plainly: Pre-emergence herbicidal activity, glasshouse pot test. As for the experimental part: as §1, with “Pre-Emergence” for “Post-Emergence”
In assay [6] the test system is Echinochloa crus-galli (ECHCG). The description is as above. Here is the method: as §1, with “Pre-Emergence” for “Post-Emergence”
The test system of assay [7] is Alopecurus myosuroides (ALOMY). The description is as above. Here is the method: as §1, with “Pre-Emergence” for “Post-Emergence”
For assay [8], the system named is Lolium perenne (LOLPE). The assay is described as above. As for the experimental part: as §1, with “Pre-Emergence” for “Post-Emergence”

For orientation: pest or weed control means how far the test organism was held down.

Take `CCc1ccc(Oc2ncc(C(F)(F)F)cc2Cl)cc1C1=C(O)C2C(C1=O)[C@H]1CC[C@@H]2CC1` (some centres unmarked) [Compound A-88]: the pest or weed control at 250 g/ha in the assay on Avena fatua (AVEFA) [1] came out at 100%; in assay [2], 100%; in assay [3] it was 90%; with Lolium perenne (LOLPE) [4], 90%; with Avena fatua (AVEFA) [5], 40%; in assay [6], 100%. Also, the values for the pest or weed control at 250 g/ha (in assay [7]; in the assay with Lolium perenne (LOLPE) [8]) were 90% and 100%, respectively.
Regarding `CCc1ccc(Oc2ccc3cc(Cl)ccc3n2)cc1C1=C(O)C2C3CCC(CC3)C2C1=O` (centres unmarked) [Compound A-53], the pest or weed control at 250 g/ha in the assay with Avena fatua (AVEFA) [1] was found to be 80%; in assay [2] it was 90%; in assay [3], 80%; in the assay on Lolium perenne (LOLPE) [4], 90%; in the assay on Avena fatua (AVEFA) [5], 0%; in assay [6], 100%. Moreover, the pest or weed control at 250 g/ha (in assay [7]; in the assay with Lolium perenne (LOLPE) [8]) was 80% each time.
As to `CCc1ccc(Oc2cccc(Cl)c2)cc1C1=C(O)[C@H]2[C@@H](C1=O)[C@@H]1CC[C@H]2O1` [Compound A-7], the pest or weed control at 250 g/ha in the assay on Avena fatua (AVEFA) [1] is 80%; in assay [2], 100%; in assay [3] it was 60%; with Lolium perenne (LOLPE) [4], 60%; in the assay on Avena fatua (AVEFA) [5], 50%; in assay [6] it was 70%. The pest or weed control at 250 g/ha (in assay [7]; in the assay on Lolium perenne (LOLPE) [8]) was 60% in each case.
Take `CCc1ccc(Oc2ccc(C#N)c(Cl)c2)cc1C1=C(O)CCC1=O` [Compound A-56]: the pest or weed control at 250 g/ha with Avena fatua (AVEFA) [1] stood at 0%; in assay [2], 70%; in assay [3], 20%; in the assay on Lolium perenne (LOLPE) [4], 20%; with Avena fatua (AVEFA) [5], 20%; in assay [6] it was 60%. In addition, the pest or weed control at 250 g/ha in assay [7] worked out at 30%; in the assay on Lolium perenne (LOLPE) [8] it was 50%.
With `CCc1ccc(Oc2ccc(Br)cc2)cc1C1=C(O)[C@H]2[C@H]3CC[C@H](C3)[C@H]2C1=O` [Compound A-22], the pest or weed control at 250 g/ha in the assay on Avena fatua (AVEFA) [1] was 80%; in assay [2], 100%; in assay [3], 50%; in the assay with Lolium perenne (LOLPE) [4], 40%; in the assay with Avena fatua (AVEFA) [5], 30%; in assay [6], 90%. The pest or weed control at 250 g/ha in assay [7] is 40%; in the assay with Lolium perenne (LOLPE) [8], 80%.
With `CCc1ccc(Oc2ccc3cc(Cl)ccc3n2)cc1C1=C(O)CCC1=O` [Compound A-43], the pest or weed control at 250 g/ha was 30% in the assay on Avena fatua (AVEFA) [1]; 100% in assay [2]; 60% in assay [3]; 30% in the assay with Lolium perenne (LOLPE) [4]; 10% in the assay with Avena fatua (AVEFA) [5]; 60% in assay [6]. Moreover, the results for the pest or weed control at 250 g/ha (in assay [7]; in the assay with Lolium perenne (LOLPE) [8]) were 40% and 50%, respectively.
`CCc1ccc(Oc2ccc(Br)cc2Cl)cc1C1=C(O)C2C(C1=O)[C@H]1CC[C@@H]2CC1` (some centres unmarked) [Compound A-28]: the pest or weed control at 250 g/ha came out at 0% in the assay with Avena fatua (AVEFA) [1]; 80% in assay [2]; 0% in assay [3]; 0% with Lolium perenne (LOLPE) [4]; 0% in the assay with Avena fatua (AVEFA) [5]; 20% in assay [6]. For the same compound, the pest or weed control at 250 g/ha (in assay [7]; in the assay on Lolium perenne (LOLPE) [8]) was 0% each time.
For `CCc1ccc(Oc2nc3c(Cl)cc(Cl)cc3s2)cc1C1=C(O)CCC1=O` [Compound A-77], the pest or weed control at 250 g/ha with Avena fatua (AVEFA) [1] is 0%; in assay [2], 80%; in assay [3], 20%; in the assay on Lolium perenne (LOLPE) [4], 30%; with Avena fatua (AVEFA) [5] it was 0%; in assay [6] it was 90%. The pest or weed control at 250 g/ha (in assay [7]; with Lolium perenne (LOLPE) [8]) was 20% each time.
`CCc1ccc(Oc2ccc(Cl)cc2Cl)cc1C1=C(O)[C@H]2[C@@H](C1=O)[C@@H]1CC[C@H]2O1` [Compound A-44]: the pest or weed control at 250 g/ha worked out at 80% with Avena fatua (AVEFA) [1]; 80% in assay [2]; 80% in assay [3]; 90% in the assay with Lolium perenne (LOLPE) [4]; 80% in the assay on Avena fatua (AVEFA) [5]; 80% in assay [6]. Also, the figures for the pest or weed control at 250 g/ha (in assay [7]; in the assay with Lolium perenne (LOLPE) [8]) were 80% and 90%, respectively.
Consider `CCc1ccc(Oc2ccc(Cl)cc2)cc1C1=C(O)[C@H]2[C@@H](C1=O)[C@@H]1CC[C@H]2O1` [Compound A-1, meso-(1R,2S,6R,7S)-4-[5-(4-chlorophenoxy)-2-ethylphenyl]-10-oxatricyclo[5.2.1.0^2,6]decane-3,5-dione], for which the pest or weed control at 250 g/ha turned out to be 80% in the assay on Avena fatua (AVEFA) [1]; 100% in assay [2]; 100% in assay [3]; 80% with Lolium perenne (LOLPE) [4]; 70% in the assay with Avena fatua (AVEFA) [5]; 70% in assay [6]. The pest or weed control at 250 g/ha (in assay [7]; in the assay with Lolium perenne (LOLPE) [8]) was 70% each time.
In the case of `CCc1ccc(Oc2ccc(F)c(Cl)c2)cc1C1=C(O)[C@H]2[C@@H](C1=O)[C@@H]1CC[C@H]2O1` [Compound A-49], the pest or weed control at 250 g/ha with Avena fatua (AVEFA) [1] is 90%; in assay [2], 100%; in assay [3], 90%; in the assay on Lolium perenne (LOLPE) [4], 100%; in the assay on Avena fatua (AVEFA) [5], 90%; in assay [6] it was 100%. Also, the pest or weed control at 250 g/ha in assay [7] was 90%; with Lolium perenne (LOLPE) [8], 100%.
For the compound `CCc1ccc(Oc2ccc(Br)c(Cl)c2)cc1C1=C(O)[C@H]2[C@@H](C1=O)[C@@H]1CC[C@H]2O1` [Compound A-48], the pest or weed control at 250 g/ha came out at 80% in the assay with Avena fatua (AVEFA) [1]; 90% in assay [2]; 80% in assay [3]; 80% in the assay with Lolium perenne (LOLPE) [4]; 80% with Avena fatua (AVEFA) [5]; 90% in assay [6]. Further, the pest or weed control at 250 g/ha (in assay [7]; in the assay on Lolium perenne (LOLPE) [8]) was 80% in each case.
On to `CCc1ccc(Oc2ccc(Br)cc2Cl)cc1C1=C(O)[C@H]2[C@@H](C1=O)[C@@H]1CC[C@H]2O1` [Compound A-9], for which the pest or weed control at 250 g/ha with Avena fatua (AVEFA) [1] was found to be 100%; in assay [2] it was 90%; in assay [3], 90%; in the assay on Lolium perenne (LOLPE) [4], 70%; in the assay with Avena fatua (AVEFA) [5], 90%; in assay [6], 70%. The pest or weed control at 250 g/ha in assay [7] stood at 80%; with Lolium perenne (LOLPE) [8], 100%.
Consider `CCc1ccc(Oc2cnc3ccc(Br)cc3n2)cc1C1=C(O)C2C(C1=O)[C@H]1CC[C@@H]2CC1` (some centres unmarked) [Compound A-93], for which the pest or weed control at 250 g/ha came to 60% in the assay with Avena fatua (AVEFA) [1]; 100% in assay [2]; 60% in assay [3]; 50% in the assay on Lolium perenne (LOLPE) [4]; 0% in the assay on Avena fatua (AVEFA) [5]; 100% in assay [6]. The pest or weed control at 250 g/ha in assay [7] turned out to be 10%; in the assay with Lolium perenne (LOLPE) [8], 60%.
As for `CCc1ccc(Oc2cnc3ccccc3n2)cc1C1=C(O)CCC1=O` [Compound A-67], the pest or weed control at 250 g/ha in the assay on Avena fatua (AVEFA) [1] came to 20%; in assay [2], 100%; in assay [3] it was 70%; with Lolium perenne (LOLPE) [4], 80%; with Avena fatua (AVEFA) [5], 40%; in assay [6] it was 100%. The pest or weed control at 250 g/ha in assay [7] turned out to be 60%; with Lolium perenne (LOLPE) [8], 100%.
`CCc1ccc(Oc2ccc(C#N)cc2)cc1C1=C(O)C2C(C1=O)[C@H]1CC[C@@H]2CC1` (some centres unmarked) [Compound A-15]: the pest or weed control at 250 g/ha in the assay with Avena fatua (AVEFA) [1] was 30%; in assay [2], 80%; in assay [3], 30%; in the assay on Lolium perenne (LOLPE) [4] it was 30%; in the assay on Avena fatua (AVEFA) [5], 0%; in assay [6] it was 100%. Further, the pest or weed control at 250 g/ha in assay [7] was 30%; with Lolium perenne (LOLPE) [8], 10%.

These data come from patent US8895474B2, “Herbicidally active cyclopentanediones and derivatives thereof, and their use in controlling weeds” (Syngenta Limited, priority 2009, dated 2014).
